In test [1] the test system is HEK293T lysates. The experiment in a line: Chemoproteomic profiling of HEK293T lysates (protein-level enrichment). In kind it is biochemical, human. The note with it: for Western blot (streptavidin-HRP) proteome labeling profile of elutions: 0-100 μM probe, with/without light, before digestion; for number of proteins identified (from ≥2 unique peptides) showing ≥2-fold enrichment versus DMSO: about 100 μM probe, 5 mg/mL lysate, 60 min incubation, 20 min irradiation: 302 nm (1a), 320 nm (1b), 440 nm (2b). The protocol: In lysate tryptophan probe treatment for protein-level characterization: HEK293T cell pellets were suspended in native lysis buffer (50 mM HEPES pH 7.5, 150 mM sodium chloride (NaCl), 1.5 mM MgCl2, 1 mM DTT, 0.8% NP-40, 5% glycerol, and 1× protease inhibitors (Thermo)) at 2× the pellet volume. The samples were sonicated on ice for 30 seconds at 20% amplitude with a 2 second pulse ON and 3 second pulse OFF. Cell debris was removed by centrifugation at 20,000×g for 20 minutes at 4° C. Protein concentration was determined by bicinchoninic acid (BCA) (Pierce) and diluted down to 5 mg/mL with ChemProt buffer (50 mM HEPES pH 7.5, 150 mM NaCl, 1.5 mM MgCl2, 1 mM DTT, 0.4% NP-40, and 1x protease inhibitors (Thermo). 5 mg cell lysates were treated with 100× stocks of the tryptophan probes (pyridinium salts 1a, 1b, and 2b) to generate final concentrations (0, 1, 10, and 100 μM) in 1% DMSO. Lysates were incubated for 1 hour at 4° C. followed by photo-activation at respective wavelengths for 20 minutes at 4° C. Excess probe was removed using Sephadex G-25 PD-10 desalting columns (GE Healthcare) pre-equilibrated with 50 mM HEPES pH 7.5, 150 mM NaCl, 1.5 mM MgCl2, and 0.4% NP-40. The samples were then treated with 100 μL Neutravidin resin as a 50% slurry (Peirce). The samples were incubated overnight on a rotating apparatus at R.T. The following day, the beads were transferred to a MobiCol column (Boca Scientific), washed 3× with phosphate buffered saline (PBS) containing 0.2% SDS, washed 3× with PBS, and the enriched proteins were eluted with 2× NuPAGE lithium dodecyl sulfate (LDS) containing 10 mM DTT (Pierce) and heated for 30 minutes at 55° C. The eluent was collected and subsequently treated with 20 mM iodoacetamide (Pierce) for 30 minutes at R.T. protected from light. Samples were passed through detergent removal columns (Pierce) that were pre-equilibrated with 50 mM HEPES pH 8.0. The samples were treated with 2.5 μg Trypsin/LysC (Promega) at 37° C. for 16 hours. The following day, the sample was collected and prepped for isobaric labeling with TMT reagents (Thermo) as specified by the manufacturer.
Quantitative proteomics by two-dimensional nano liquid chromatography-tandem mass spectrometry (nLC-MS/MS): For protein-level characterization, the TMT-labeled sample were reconstituted in 0.1% formic acid (FA)/2% acetonitrile for offline high-pH reversed phase separation (RP10) using a Dionex UltiMate 3000 high-performance liquid chromatography (HPLC) system with fraction collection using Chromeleon v.6.8 (Thermo) software. Separation was achieved on a Waters Xbridge C18 3.5 μm 2.1×150 mm HPLC column (Waters) using a flow rate of 250 μL min-1 and the following ternary gradient and conditions: mobile phase A=water (HPLC grade), mobile phase B=acetonitrile (HPLC grade), and mobile phase C=200 mM ammonium acetate, pH 10. Mobile phase C is held at 10% throughout gradient. Starting conditions are 89% mobile phase A and 1% mobile phase B, ramping mobile phase B to 80% over 65 min. Fractions were collected in 96-well plates at 100 sec per well. Fractions were reduced down to 12 fractions, dried, and reconstituted in 0.1% FA/2% acetonitrile for nLC-MS/MS. All data were acquired using a Orbitrap Fusion Lumos coupled to an Easy-nLC 1200 nanoflow liquid chromatograph operating at 300 nL min-1. Peptides were cleaned up using a 1 cm online custom trap then eluted on a custom 20 cm laser pulled 75 μm column with C18 resin. Peptides were quantified using the synchronous precursor selection (SPS-MS3) or HCD method for TMT quantitation with 120k MS1 resolving power, 50 ms max injection time and 100% AGC. MS2 spectra were selected using the top ten most abundant features with a charge state between 2-6 using CID (collision induced dissociation) in the ion trap. The AGC was set to 100% with an isolation width of 0.7. MS3 was performed on the top 10 most abundant MS2 features between 400-1600 amu with a collision energy of 55%, AGC of 250%, and 50k resolution. […]

Test [2] addresses T1, lysozyme (Gallus gallus, UniProt P00698).
T1 construct: Lysozyme (from chicken egg white, >40,000 units/mg of protein); purchased Sigma Aldrich; host or cells: chicken egg white
The experiment in a line: Photochemical labeling of lysozyme with pyridinium salts (General Procedure B, LC/MS). In kind it is biochemical, chicken. The note with it: lysozyme labeling. The protocol:
General Procedure B: Photochemical Irradiation of Peptides and Proteins: To a 2 mL Pyrex LC/MS vial (Thermo model #03-391-39) were sequentially added solutions containing the desired biomolecule, glutathione (GSH), pyridinium salt, and ammonium acetate (NH4OAc). The resulting solution was diluted to a final volume of 500 μL and then sparged using nitrogen for a minimum of 30 minutes prior to irradiation. The actively sparging solution was then placed in an EvoluChem™ PhotoRedOx Box photoreactor that was equipped with a Kessil, PR160 427 nm LED Lamp and was then irradiated (100% lamp intensity) for the designated time at room temperature while maintaining active sparging. The resultant reaction mixture was then analyzed directly by LC/MS. Analysis of labeling outcomes using LC/MS was performed either by extracted ion chromatogram intensities (method A) or by integrating the area under the peaks associated with peptide content (method B). These values were totaled, and estimated percentages were assigned according to relative intensities of peaks or ion counts.
Labeling of Lysozyme with Pyridinium Salt 2a (Lysozyme-2a Conjugate). Labeling of lysozyme (14.3 kDa) with the pyridinium salt 2a was performed by following general procedure B using the following solutions: lysozyme (27 μL, 182 μM, 10 μM final concentration), pyridinium salt 2a (200 μL, 500 μM, 200 μM final concentration), NH4OAc (100 μL, 100 mM, pH=6.9, 20 mM final concentration), glutathione (15 μL, 10 mM, 300 μM final concentration), and water (158 μL) with a 100% intensity irradiation time of 60 minutes. The reaction mixture was analyzed directly by LC/MS using method A and was estimated to have proceeded in >95% conversion and a 10.9:1 mono:di labeled ratio and 10% glutathionylation of all unlabeled and labeled protein content was observed.
Labeling of Lysozyme with Pyridinium Salt 2b (Lysozyme-2b Conjugate). Labeling of lysozyme (14.3 kDa) with the pyridinium salt 2b was performed by following general procedure Busing the following solutions: lysozyme (19 μL, 262 μM, […]), 2b (181 μL, 554 μM, 200 μM final concentration), NH4OAc (50 μL, 200 mM, pH=6.9, 20 mM final concentration), glutathione (50 μL, 3 mM, 300 μM final concentration), and water (200 μL) with a 100% intensity irradiation time of 10 minutes. The reaction mixture was analyzed directly by LC/MS using method A and was estimated to have proceeded with 83% conversion. […]
Labeling of Lysozyme with Pyridinium Salt 2c (Lysozyme-2c Conjugate). […] The reaction mixture was analyzed directly by LC/MS using method A and was estimated to have proceeded with 85% conversion and a 3.7:1 mono:di labeled ratio and 10% glutathionylation of all protein content was observed. […]

Entries after “also recorded” stand apart in the source; their conditions may differ. Counter-ions that a name gives are not always drawn.

T1 sequence (P00698 19-147): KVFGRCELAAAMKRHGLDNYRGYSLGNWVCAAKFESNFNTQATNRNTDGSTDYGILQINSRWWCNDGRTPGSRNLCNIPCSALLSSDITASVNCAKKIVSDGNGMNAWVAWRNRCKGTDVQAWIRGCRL

Turning to `Cc1cc(C)[n+](N(C)C(=O)OCCCCC[C@@H]2SC[C@@H]3NC(=O)N[C@@H]32)c(C)c1` [pyridinium salt 1a, 2,4,6-trimethyl-1-(methyl(((5-((3aS,4S,6aR)-2-oxohexahydro-1H-thieno[3,4-d]imidazol-4-yl)pentyl)oxy)carbonyl)amino)pyridin-1-ium tetrafluoroborate], in test [1], the “Western blot (streptavidin-HRP) proteome labeling profile of elutions” value is “concentration and optically dependent proteome labeling profiles; also recorded: loss of signal”; the “number of proteins identified (from ≥2 unique peptides) showing ≥2-fold enrichment versus DMSO” value is on record as 185. Turning to `Cc1cc(-c2ccccc2)cc(C)[n+]1N(C)C(=O)OCCCCC[C@@H]1SC[C@@H]2NC(=O)N[C@@H]21` [pyridinium salt 1b, 2,6-dimethyl-1-(methyl(((5-((3aS,4S,6aR)-2-oxohexahydro-1H-thieno[3,4-d]imidazole-4-yl)pentyl)oxy)carbonyl)amino)-4-phenylpyridin-1-ium tetrafluoroborate], in test [1], the “Western blot (streptavidin-HRP) proteome labeling profile of elutions” value is “concentration and optically dependent proteome labeling profiles; also recorded: dose-response profiles”; the “number of proteins identified (from ≥2 unique peptides) showing ≥2-fold enrichment versus DMSO” value came out at 365. Regarding `COc1ccc2cc(-c3cc(C)[n+](N(C)C(=O)OCCCCCC[C@H]4NC(=O)N[C@H]4C)c(C)c3)ccc2c1` [pyridinium salt 2c, 4-(6-methoxynaphthalen-2-yl)-2,6-dimethyl-1-(methyl(((6-((4R,5S)-5-methyl-2-oxoimidazolidin-4-yl)hexyl)oxy)carbonyl)amino)pyridin-1-ium trifluoroacetate], the “labeling rate compared to pyridinium salt 2a” value in test [2] is “enhanced rate”.

(Values after patent publication US20240262845A1, “PYRIDINIUM SALTS, METHODS OF MAKING, AND METHODS OF USE” (UNIVERSITY OF WYOMING, priority 2023, published 2024).)
